Source: PubChem BioAssay (NCI)
Values joined by “and” are separate entries in the source; they are usually repeats but may differ in a detail not shown here. Identical values can stand only once.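 Interpolation was linear, between the two tested concentrations surrounding the appropriate level; five concentrations were tested over 48 hours in 96-well plates. Abbreviation: GI50, concentration required for 50% inhibition of growth. TGI: concentration producing complete growth inhibition.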

Experiments:
Assay in all cases: NCI tumour cell line growth inhibition, 48 h
DLD-1 colon = system: DLD-1 colon
DMS 114 small cell lung = system: DMS 114 small cell lung
M19-MEL melanoma = system: M19-MEL melanoma
RXF-631 renal = system: RXF-631 renal
SNB-78 CNS = system: SNB-78 CNS
XF 498 CNS = system: XF 498 CNS
DU-145 prostate = system: DU-145 prostate
MDA-MB-231 breast = system: MDA-MB-231 breast
MDA-N = system: MDA-N
P388/ADR leukemia = system: P388/ADR leukemia

SMILES | TGI (DLD-1 colon) | TGI (DMS 114 small cell lung) | TGI (M19-MEL melanoma) | TGI (RXF-631 renal) | TGI (SNB-78 CNS) | TGI (XF 498 CNS) | also measured
COc1cccc(N2C(=O)c3c(c4[nH]c5ccccc5c4c4ccc(C(C)(C)C)cc34)C2=O)c1 | > 100 µM | > 100 µM | > 100 µM | > 100 µM | > 100 µM | > 100 µM | –
C/C(=N\N=C(N)N)C(CN(CC(C)C)CC(C)C)C(=O)Nc1ccc(C)cc1C (configuration not stated) | > 100 µM | > 100 µM | > 100 µM | > 100 µM | > 100 µM | > 100 µM | –
COC(=O)C1(C)C=C(Nc2ccccc2)C(=O)N1c1ccccc1 (configuration not stated) | > 100 µM | > 100 µM | > 100 µM | > 100 µM | > 100 µM | > 100 µM | –
O=C1C2C(C(=O)N1O)N(Cc1ccccc1)C(=O)N2Cc1ccccc1 (configuration not stated) | > 100 µM | > 100 µM | > 100 µM | – | > 100 µM | > 100 µM | –
Cc1[nH]c(=O)[nH]c(=O)c1N(CCF)CCCl | 1250 µM and 1290 µM and 830 µM | 371 µM and 771 µM and 436 µM | – | – | 1000 µM and 1400 µM and 1210 µM | 679 µM and 554 µM | GI50 (DLD-1 colon): 303 µM and 472 µM; GI50 (DMS 114 small cell lung): 148 µM; TGI (DU-145 prostate): 1410 µM; TGI (MDA-MB-231 breast): 888 µM; TGI (MDA-N): 828 µM; GI50 (P388/ADR leukemia): 242 µM; TGI (P388/ADR leukemia): 557 µM and 1110 µM; GI50 (SNB-78 CNS): 435 µM; GI50 (XF 498 CNS): 334 µM and 198 µM
C=CC1(C)CCC(C(C)C(=O)C(C=C(C)C)OC(C)=O)C12C(=O)Oc1ccccc1C2=O (configuration not stated) | > 100 µM | > 100 µM | > 100 µM | – | > 100 µM | > 100 µM | –
CC1=CC=NN2C(=O)[C@H](C)C2C1 (some centres not stated) | > 100 µM | > 100 µM | > 100 µM | > 100 µM | > 100 µM | > 100 µM | –
COc1ccc(OCC(=O)O)c2c1CCC(C(C)C)C2=O (configuration not stated) | > 100 µM | > 100 µM | > 100 µM | > 100 µM | > 100 µM | – | –
CC(C)C(C(=O)O)N(CC1(O)OCC(O)C(O)C1O)N=O (configuration not stated) | > 100 µM | > 100 µM | > 100 µM | > 100 µM | > 100 µM | > 100 µM | –
CCCCCCCCCCCCCS(=O)(=O)O | > 100 µM | > 100 µM | > 100 µM | > 100 µM | > 100 µM | > 100 µM | –
CCN1C(=O)C/C(=C\C(C)=O)Nc2ccccc21 | 44.7 µM | > 100 µM | > 100 µM | – | > 100 µM | > 100 µM | GI50 (DU-145 prostate): > 100 µM; TGI (DU-145 prostate): > 100 µM; GI50 (MDA-MB-231 breast): > 100 µM; TGI (MDA-MB-231 breast): > 100 µM
C/C(=N\NC(=S)N1CCCCCC1)c1nccnc1C | > 100 µM | 0.0275 µM | 15.6 µM | – | > 100 µM | 9.89 µM | –
CC(C)(C)NNC(=O)/C(=C/c1ccc(Oc2ccc(Cl)c(Cl)c2)cc1)NC(=O)c1ccccc1 | > 100 µM | 35.9 µM | > 100 µM | > 100 µM | > 100 µM | > 100 µM | –
O=P(c1ccccc1)(c1ccccc1)C1CC=C(c2ccccc2)C2(CCCC2)C1 (configuration not stated) | > 100 µM | > 100 µM | > 100 µM | > 100 µM | > 100 µM | > 100 µM | –
COc1ccc2[nH]cc(CCNC(C)=O)c2c1 | > 100 µM | > 100 µM | > 100 µM | – | > 100 µM | > 100 µM | –
CCCN1C(=O)C/C(=C\C(C)=O)Nc2ccccc21 | > 100 µM | > 100 µM | > 100 µM | – | > 100 µM | > 100 µM | –
O=C1NC(=O)C(C(=O)C(=O)Nc2ccc(Br)cc2)C(=O)N1 | > 100 µM | > 100 µM | > 100 µM | > 100 µM | > 100 µM | > 100 µM | –
CSC(=S)c1ccc(C(=S)SC)cc1 | > 100 µM | > 100 µM | > 100 µM | > 100 µM | > 100 µM | > 100 µM | –
COc1cc(Nc2cnc3cc(C(F)(F)F)ccc3n2)cc(OC)c1OC | > 100 µM | – | > 100 µM | > 100 µM | > 100 µM | > 100 µM | –
Cc1cc2c(cc1C)NC(=O)C(NC(=O)/C=C/c1ccccc1)C=N2 (configuration not stated) | > 100 µM | 31.1 µM | > 100 µM | – | > 100 µM | 99.6 µM | –
CCC/C(=N\NC(=S)N1CCN(c2ccccn2)CC1)c1ccccn1 | 1.33 µM and 1.34 µM | 0.111 µM | 1.32 µM and 1.74 µM | > 10 µM and 2.34 µM | > 10 µM and 4.24 µM | 0.302 µM | TGI (DU-145 prostate): 2.37 µM; GI50 (M19-MEL melanoma): 0.0534 µM; TGI (MDA-MB-231 breast): 1.91 µM; TGI (MDA-N): 1.92 µM; GI50 (RXF-631 renal): 0.0384 µM; GI50 (SNB-78 CNS): 1.08 µM
O=C(CCN1CCN(c2cccc(Cl)c2)CC1)N1CCc2c([nH]c3ccccc23)C1c1cccnc1 (configuration not stated) | 25.4 µM | – | 26.4 µM | > 100 µM | 9.97 µM | 9.57 µM | GI50 (DLD-1 colon): 8.09 µM; GI50 (RXF-631 renal): 8.64 µM
C/C(CN1C(=O)c2ccccc2C1=O)=N\NS(=O)(=O)c1cccc([N+](=O)[O-])c1 | > 100 µM | – | > 100 µM | > 100 µM | > 100 µM | > 100 µM | –
CC(=O)N1CCC2(C=Nc3ccccc32)CC1 | > 100 µM | > 100 µM | > 100 µM | – | > 100 µM | > 100 µM | –
CCN(CC)CCCN(c1cc(OC)cc2nccnc12)S(=O)(=O)c1ccc(C)cc1 | > 100 µM | > 100 µM | > 100 µM | > 100 µM | – | > 100 µM | –
NC(=S)/N=C/c1c(O)c2ccccc2oc1=O | > 100 µM | > 100 µM | > 100 µM | – | > 100 µM | > 100 µM | –
CC(=O)Nc1ccc(/C=C(\NC(=O)c2ccccc2)c2nc3ccc4c(c3[nH]2)C(=O)c2ccccc2C4=O)cc1 | > 100 µM | > 100 µM | > 100 µM | – | > 100 µM | > 100 µM | –
Cn1ncc(=S)[nH]c1=S | > 100 µM | > 100 µM | > 100 µM | > 100 µM | > 100 µM | > 100 µM | –
